Test results published in patent publication US10793514B2, “Glutamine transport inhibitors and methods for treating cancer” (Vanderbilt University, priority 2016, dated 2020).

What was measured:
HCC1806 cells [1] = test: Glutathione and reactive oxygen species in HCC1806 cells; assay type: cell-based, human
Experimental: Glutathione levels were measured using a commercially available kit (Cayman Chemical 703002) according to the manufacturers protocol. Concurrently ROS was measured in cells using CM-H2DCFDA (Life Technologies C6827) coupled with flow cytometry in accordance with the manufacturers protocol. The assay was replicated replicated at least three times, technically and biologically. Significance was calculated using a t-test in Graphpad Prism. Error is reported as standard deviation (SD).

HCC1806 cells [2] = test: LC3B immunofluorescence; assay type: cell-based, human; details: 25 μM, 48 hrs
Experimental: Following treatment, cells were fixed with 70% methanol for 5-10 min. LC3B was visualized with 1:100 primary antibody (anti LC3B, Cell signaling 2775) at 37° C. for 45 min followed by application of 1:600 secondary antibody (Rhodamine Red, Invitrogen R6394) at 37° C. for 30 min and DAPI for 4 min. Images were acquired with a fluorescence microscope at visualized at 40× magnification.

With Cc1cccc(COc2ccccc2CN(CCC(N)C(=O)O)Cc2ccccc2OCc2cccc(C)c2)c1 (stereo not drawn) [Compound V-9302] the “intracellular reactive oxygen species (ROS)” value (HCC1806 cells [1]) was “corresponding increase in intracellular reactive oxygen species (ROS)”, the “oxidized (GSSG) and reduced (GSH) glutathione” value (HCC1806 cells [1]) was “increased levels of oxidized glutathione (GSSG) at the expense of reduced glutathione (GSH)” and the “LC3B, marker of autophagy” value (HCC1806 cells [2]) was “elevated LC3B”.
